Data from patent publication US20240400546A1, “COMPOUNDS AND USES THEREOF” (JANSSEN PHARMACEUTICA NV, priority 2016, published 2024).
Like-named read-outs stand apart in the source and are kept apart here.

What was measured:
[1] = system: yeast strains expressing the human protein α-synuclein; experiment: Yeast rescue assay, α-synuclein toxicity (OD600 growth); assay type: cell-based; conditions: 40 h; for EC50: read-out: α-Syn EC50
Experimental: (§1) In a standard yeast assay, a single-use aliquot of cells was thawed on ice and diluted into CSM/glucose (5 mL). Cultures were grown for 8 hours at 30° C. This pre-growth enables the yeast to exit the thaw and begin to grow without expressing aSyn or ApoE4. After 8 hours, cell density (OD600) was determined and cultures diluted to an OD600 of 0.01 in CSM/raffinose for an overnight culture phase at 30° C. During this period, the active glucose repression of the GAL1 promoter was relieved; however, expression of the α-Syn/ApoE4 genes were not yet induced. After ˜16 hours of growth, cultures attain an OD600 of 0.4-0.8 and were ready to apply to assay plates containing compound.
(§2) Compound profiling assays were executed in clear-bottom 384 well plates. First, compound plates were thawed at room temperature for 45′, centrifuged at 1,000×g for 1 minute, and the foil removed. Clear 384 well assay plates were then filled with 15 μL of CSM/galactose. Both compound and media-containing plates were arranged on the Janus workstation and a compound pin tool (384×100 nL slotted pins) used to deliver 100 nL of compounds to each well according to the well map of the compound plate. Based on the previous serial dilution, the final concentration of compound ranged from […] to 12.5 nM. The pin tool was washed iteratively with both 50% DMSO and 100% ethanol between each assay plate. After delivering compound to each assay plate, the overnight CSM/raffinose aSyn or ApoE4 cultures were added at a 2× cell density (0.04 for aSyn and 0.08 for ApoE4) in CSM/galactose to achieve a final assay OD600 of 0.02 and 0.04 for aSyn and ApoE, respectively. The cultures (15 μL per well) were then dispensed to the compound-containing 384 well assay plates using an automated plate filler. Plates were incubated in a humidified 30° C. incubator for 40 or 24 hours for aSyn and ApoE4, respectively. The OD600 of each assay plate was then read with a microplate reader (e.g., Perkin Elmer Envision).
The efficacy and potency of compounds were calculated according to the following. Raw data (OD600 values) were first background corrected to account for OD600 contributed by the plate and media itself. The efficacy (percent above DMSO, herein referred to as “Emax”) was calculated according to the equation: (Experimental well−DMSO control well)/(DMSO control well)*100. […] Normalized dose-response data was fit with a logistic regression curve using Spotfire (TIBCO), or similar curve-fitting software package. EC50 values were then reported along with EMax to provide both efficacy and potency measures for each analog and enable further compound design.

[2] = system: yeast strains expressing the human protein ApoE4; experiment: Yeast rescue assay, ApoE4 toxicity (OD600 growth); assay type: cell-based; conditions: 24 h
Experimental: as §1
as §2, with “The cultures (15 μL per well) were then dispensed to the compound-containing 384 well assay plates using an automated plate filler. Plates were incubated in a humidified 30° C. incubator for 40 or 24 hours for aSyn and ApoE4, respectively.” left out
The efficacy and potency of compounds were calculated according to the following. […] The efficacy (percent above DMSO, herein referred to as “Emax”) was calculated according to the equation: (Experimental well−DMSO control well)/(DMSO control well)*100. […]

[3] = target: T1, SCD1 (Homo sapiens, UniProt O00767); experiment: Growth inhibition of humanized yeast expressing SCD1 as sole desaturase; assay type: cell-based
T1 construct: host or cells: S. cerevisiae ole1Δ strain, plasmid pRS316 with TDH3 promoter and CYC1 terminator
T1 sequence (O00767 1-359): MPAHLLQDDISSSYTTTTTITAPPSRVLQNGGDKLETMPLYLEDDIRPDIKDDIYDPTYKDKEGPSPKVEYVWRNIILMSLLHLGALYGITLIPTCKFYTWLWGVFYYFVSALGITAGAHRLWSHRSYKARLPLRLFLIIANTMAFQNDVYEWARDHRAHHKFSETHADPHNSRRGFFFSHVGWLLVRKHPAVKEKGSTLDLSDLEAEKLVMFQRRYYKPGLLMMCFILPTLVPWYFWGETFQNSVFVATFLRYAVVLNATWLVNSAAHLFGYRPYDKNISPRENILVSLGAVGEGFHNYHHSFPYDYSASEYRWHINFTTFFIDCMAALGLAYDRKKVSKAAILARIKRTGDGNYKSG
In short: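 ole1Δ yeast (W303 pdr1Δ pdr3Δ background) carried plasmid-borne human SCD1, human SCD5 or yeast Ole1 as the sole desaturase and were grown in uracil-lacking galactose medium in 384-well plates. Starting 2× density was OD600 0.02, with incubation at 30 °C. Growth was read as OD600 at 24 h for Ole1 and at 40 h for SCD1 and SCD5.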

[4] = target: T2, SCD5 (Homo sapiens, UniProt Q86SK9); experiment: Growth inhibition of humanized yeast expressing SCD5 as sole desaturase; assay type: cell-based
T2 construct: host or cells: S. cerevisiae ole1Δ strain, plasmid pRS316 with TDH3 promoter and CYC1 terminator
T2 sequence (Q86SK9 1-330): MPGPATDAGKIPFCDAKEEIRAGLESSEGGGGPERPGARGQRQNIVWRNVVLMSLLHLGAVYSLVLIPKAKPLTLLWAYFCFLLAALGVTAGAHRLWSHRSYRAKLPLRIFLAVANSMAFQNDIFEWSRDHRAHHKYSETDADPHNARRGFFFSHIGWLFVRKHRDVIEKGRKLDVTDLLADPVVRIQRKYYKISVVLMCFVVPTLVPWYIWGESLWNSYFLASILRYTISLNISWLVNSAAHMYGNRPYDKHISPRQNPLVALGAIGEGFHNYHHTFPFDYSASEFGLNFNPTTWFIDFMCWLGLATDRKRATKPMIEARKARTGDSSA
Experimental: (§3) Strain ole1Δ (yeast ole1 deletion mutant) was constructed by deleting OLE1 with NAT-MX6 in BY4741, amplifying the deletion cassette from the genomic DNA of the resulting strain with primers flanking the ORF by 1000 bp upstream and downstream, transforming the resulting deletion cassette into W303 pdr1Δ pdr3Δ, and plating transformants on YPD media containing G418 (200 μg/mL) and nourseothricin (100 μg/mL) with 0.01% TWEEN®-20 and 0.5 mM oleic and palmitoleic acids.
(§4) The coding sequence of yeast OLE1 was also cloned into this plasmid). These clones were then transformed into the ole1Δ strain and plated on CSM-Ura media (CSM lacking uracil) with 2% glucose (w/v) and independent colonies were isolated and amplified.
(§5) All compound profiling experiments were performed using the same basic protocol. Different genetic backgrounds (e.g., gene deletions) or conditions (e.g., addition of oleic and palmitoleic acid) were replaced as indicated below.
(§6) Yeast were cultured using standard techniques in complete synthetic media (CSM) and yeast nitrogen base supplemented with 2% (w/v) carbon source (glucose, raffinose, or galactose) to regulate the expression of the toxic disease protein. An initial starter culture was inoculated in 3 mL CSM-Glucose media and incubated overnight in a 30° C. shaker incubator (225 rpm). Saturated morning cultures were then diluted 1:20 in fresh CSM-Raffinose media and grown for 6 h to an OD600 (optical density) of ˜0.4-0.8 at 30° C. with shaking.
(§7) Compound administration was performed in two separate steps. First, 15 μL of CSM-Galactose (induces expression of toxic protein) was dispensed into clear 384 well assay plates using a MULTIDROP™ Combi reagent dispenser. […] The cultures described above were then diluted to a 2× concentration (0.03 and 0.08 for alpha-synuclein and ApoE, final OD600 of 0.015 and 0.04) in CSM-Galactose. For wild-type and Ole1/SCD1/SCD5 plasmid-containing strains, the 2× cell density was 0.02. […] For 96-well assays (FIGS. 1A and 1B), compound dilutions in DMSO were generated in 96 well plates and 1 μL was manually pipetted into 96 well clear bottom assay plates.
(§8) For experiments using a plasmid-borne copy of Ole1, SCD1, or SCD5 (FIGS. 3B, 6, and 7), media lacking uracil (SX-Ura, where X is glucose, raffinose, or galactose), was used for all steps of the compound profiling protocol to ensure its maintenance throughout the assay.
(§9) After yeast delivery, assay plates were incubated under humidified conditions at 30° C. for 24 to 40 h. ApoE4 rescue experiments were stopped at 24 h, aSyn experiments at 40 h, Ole1 at 24 h, and SCD1/SCD5 at 40 h. The growth of yeast was monitored by reading the OD600 of each well using a microplate reader (Perkin Elmer EnVision™).

[5] = target: T3, Ole1 (Saccharomyces cerevisiae, UniProt P21147); experiment: Growth inhibition of yeast expressing Ole1 as sole desaturase; assay type: cell-based
T3 construct: expressed in transfected cells; host or cells: S. cerevisiae ole1Δ strain (W303 pdr1Δ pdr3Δ background), plasmid pRS316 with TDH3 promoter and CYC1 terminator
T3 sequence (P21147 1-510): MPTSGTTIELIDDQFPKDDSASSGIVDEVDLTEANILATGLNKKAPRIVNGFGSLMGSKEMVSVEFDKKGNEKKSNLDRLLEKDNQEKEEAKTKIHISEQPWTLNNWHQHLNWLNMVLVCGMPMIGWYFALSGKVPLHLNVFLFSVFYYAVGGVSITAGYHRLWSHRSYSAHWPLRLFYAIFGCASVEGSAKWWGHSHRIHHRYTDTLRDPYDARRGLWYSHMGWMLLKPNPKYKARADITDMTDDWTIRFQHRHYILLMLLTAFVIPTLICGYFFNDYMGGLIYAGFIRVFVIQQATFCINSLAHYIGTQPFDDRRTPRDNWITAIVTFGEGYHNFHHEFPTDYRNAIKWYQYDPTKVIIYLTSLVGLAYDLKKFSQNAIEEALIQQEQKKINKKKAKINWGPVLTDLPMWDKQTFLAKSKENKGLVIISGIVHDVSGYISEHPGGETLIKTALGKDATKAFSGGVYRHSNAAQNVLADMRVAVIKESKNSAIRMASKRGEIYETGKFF
Experimental: as §3, §4, §5, §6, §7, §8, §9

[6] = target: T4, yeast OLE1 (Saccharomyces cerevisiae, UniProt P21147); experiment: Growth of yeast surviving solely on yeast OLE1; assay type: cell-based; conditions: percent of the DMSO-treated condition
T4 construct: expressed in transfected cells; host or cells: S. cerevisiae ole1Δ strain (W303 pdr1Δ pdr3Δ background), plasmid pRS316 with TDH3 promoter and CYC1 terminator
T4 sequence (P21147 1-510): T3 sequence (P21147 1-510)
Experimental: (§10) FIG. 6 is a series of graphs showing that commercial Scd inhibitors target human SCD1/SCD5 in yeast. Yeast surviving solely on yeast OLE1, or human SCD1 or SCD5, were treated with four commercial Scd inhibitors at indicated concentrations. Data are expressed as a percent of the DMSO-treated condition.
(§11) FIG. 7 is a series of graphs showing that 1,2,4-oxadiazoles target human SCD1 and SCD5. Three “SCD” strains expressing yeast OLE1 or human SCD1 or SCD5 were treated with five representative 1,2,4-oxadiazoles and a cycloheximide toxicity control at concentrations indicated on the logic x-axis. The y-axis indicates the percent of the DMSO-treated condition. […] Approximately one half of all (250) 1,2,4-oxadiazoles tested inhibited SCD1 or SCD5 in a manner that was reversed by oleic/palmitoleic acid treatment.

[7] = target: T2, SCD5; experiment: Growth of yeast surviving solely on human SCD5; assay type: cell-based, yeast expressing human SCD5; conditions: percent of the DMSO-treated condition
Experimental: as §10, §11

[8] = target: T1, SCD1; experiment: Growth of yeast surviving solely on human SCD1; assay type: cell-based; conditions: percent of the DMSO-treated condition
Experimental: as §10, §11

[9] = humanized yeast expressing SCD1
[10] = humanized yeast expressing SCD5
[11] = yeast expressing Ole1 as sole desaturase

In the case of `CCOc1ccc(-c2noc(C3CCN(C(=O)N4CCCCC4)CC3)n2)cc1OC` [Compound 53], the “α-Syn Emax” value ([1]; percent above DMSO) is reported as 81% and the “ApoE4 Emax” value ([2]; percent above DMSO) is reported as 296%.
With `Cc1ccc(-c2noc(C3CCN(C(=O)C4CC(=O)N(c5ccc(C)c(C)c5)C4)CC3)n2)cc1` (centres unmarked) [Compound 61] the “SCD1 % Max Inhibition” value [3, 9] was 2.37%, the EC50 [1] was 19.7 µM and the “α-Syn Emax” value ([1]; percent above DMSO) was 229%. The EC50 ([2]; Homo sapiens) was 19.4 µM, the Emax ([2]; Homo sapiens, percent above DMSO) was 465% and the “SCD5 % Max Inhibition” value [4, 10] was 13.18%. The IC50 [5, 11] was 40.9 µM and the “OLE1 % Max Inhibition” value [5, 11] was 71.50%.
`C[C@@H]1C[C@@H]([C@H](O)CC2CC(=O)NC(=O)C2)C(=O)[C@@H](C)C1` [Cyclohexamide, cycloheximide] was tested, and the “growth of Ole1-expressing yeast” value [6] was “inhibited growth of all three strains with the same potency”, the “growth of SCD5-expressing yeast” value [7] was “inhibited growth of all three strains with the same potency” and the “growth of SCD1-expressing yeast” value [8] was “inhibited growth of all three strains with the same potency”.
`Cc1nnc(-c2ccc(N3CCC(Oc4ccccc4C(F)(F)F)CC3)nn2)s1` [MF-438, reference compound] was tested, and the “half-maximal inhibitory concentration (IC50), SCD1 humanized strain” value ([3]; FIG. 6) was “low nanomolar”, the “half-maximal inhibitory concentration (IC50), SCD5 humanized strain” value ([4]; FIG. 6) was “low nanomolar” and the “Sensitivity of yeast expressing OLE1 to known SCD1/SCD5 inhibitors” value ([5]; FIG. 6) was “resistant”.
With `CCOc1ccc(-c2noc(C3CCN(C(=O)[C@@H]4CC[C@H](c5ccccc5)N4)CC3)n2)cc1OC` [compound 119] the IC50 [3, 9] was over 45 µM, the Emax ([1]; Homo sapiens, percent above DMSO, read-out: α-Syn Emax) was 61% and the EC50 ([1]; Homo sapiens) was 20.9 µM. For the same compound, the IC50 [4, 10] was over 45 µM.
